From US6696600B2, “L-DOPA ethyl ester salts and uses thereof” (priority 2001, dated 2004)
Where two headings read alike, the source gives them in different places.

Tests used:
Format in all cases: physicochemical
[1] = Hygroscopicity test: weight gain of solid sample in humidity chamber at RH=80%; conditions: for hygroscopicity (in words): RH=80% screening; for weight gain in hygroscopicity test / appearance after exposure in a humidity chamber: RH=80%; for weight gain in hygroscopicity test: T=20±2° C.
Source text: There are many methods of quantitative evaluation of hygroscopicity of solid products without measuring the hygroscopic point. The most widely used method is based on measuring the weight gain of a solid sample in a humidity chamber. […] This method was used for screening the hygroscopicity of several LDEE salts. It also provides a comparison of the hygroscopic properties of different solids by comparison of water absorption rates under the same conditions.

[2] = pKa and delta pKa (pKa LDEE − pKa acid)
Source text: Preparation and selection of salts that have different physical properties are detailed in the literature. […]. PKa of LDEE free base is known to be 7.24 [8]. […]. This fact is illustrated in Example 1 below, in which the crystallization of LDEE palmitate was attempted. After dissolution of LDEE base and palmitic acid in absolute alcohol, the solution was cooled, and instead of forming a new salt, pure palmitic acid was crystallized out, and no solid crystalline salt was formed. […]

pH of water solution = test: pH of water solution

Compound	Color stability at RH = 80% [1] [h]	Mean water absorption rate at RH = 80% [1] [mol/kg/h]	Material appearance after 24 hrs at RH = 80% [1]	Weight gain during 24 hrs at RH = 80%,% [1] [%]	hygroscopicity (in words) [1]	weight gain in hygroscopicity test ([1]; during 24 hrs) [%]	delta pKa pKaLDEE − pKaacid (first value) [2]	delta pKa pKaLDEE − pKaacid (second value) [2]	delta pKa pKaLDEE − pKaacid (first value) ([2]; first pKa of the acid)	delta pKa pKaLDEE − pKaacid (third value) [2]	pH of water solution (pH of water solution)	water absorption at RH=80% (in words) [1]	appearance after exposure in a humidity chamber ([1]; about 48 hrs)	weight gain in hygroscopicity test ([1]; during 8 hrs) [%]	delta pKa pKaLDEE − pKaacid (second value) ([2]; second pKa of the acid)	delta pKa pKaLDEE − pKaacid (third value) ([2]; third pKa of the acid)	appearance after exposure in a humidity chamber ([1]; about 24 hrs)
CCOC(=O)C(N)Cc1ccc(O)c(O)c1.O=C(O)C(O)C(O)C(=O)O (mixture of isomers) [Example 7, LDEE (LD)Tartrate]	20	0.146	Syrup	6.3	hygroscopic	6.3	4.26	2.90	–	–	–	–	–	–	–	–	–
CCOC(=O)[C@@H](N)Cc1ccc(O)c(O)c1.O=C(O)C(O)C(O)C(=O)O [Example 4, LDEE L(+)Tartrate]	15	0.164	Syrup	7.1	hygroscopic	7.1	4.26	2.90	–	–	–	–	–	–	–	–	–
CCOC(=O)[C@@H](N)Cc1ccc(O)c(O)c1.O=C(O)C(O)C(O)C(=O)O [Example 5, LDEE Hydrogen L(+)Tartrate]	19	0.23	Syrup	10.1	hygroscopic	10.1	4.26	2.90	–	–	–	–	–	–	–	–	–
CCOC(=O)[C@@H](N)Cc1ccc(O)c(O)c1.O=C(O)C(O)C(O)C(=O)O [Example 6, LDEE D(−)Tartrate]	20	0.155	–	6.7	–	6.7	–	–	4.26	–	–	–	–	–	–	–	–
CCOC(=O)[C@@H](N)Cc1ccc(O)c(O)c1.O=C(O)c1ccccc1 [Example 8, LDEE Benzoate]	4.5	0.09	Semi-solid melt	4.1	hygroscopic	4.1	3.03	–	–	–	–	–	–	–	–	–	–
CCOC(=O)[C@@H](N)Cc1ccc(O)c(O)c1.O=P(O)(O)O [Example 11, LDEE Phosphate]	15	0.147	Semi-solid melt	6.4	–	6.4	5.09	0.04	–	−4.6	–	–	–	–	–	–	–
CCOC(=O)[C@@H](N)Cc1ccc(O)c(O)c1.O=C(O)CC(O)(CC(=O)O)C(=O)O [Example 13, LDEE Citrate]	–	–	–	–	–	–	4.11	4.28	–	0.84	–	–	–	–	–	–	–
CCOC(=O)[C@@H](N)Cc1ccc(O)c(O)c1.O=C(O)[C@@H](O)c1ccccc1 [Example 15, LDEE S(+)Mandelate]	>24	0.092	Semi-solid melt	4.0	hygroscopic	4.02	3.4	–	–	–	–	–	–	–	–	–	–
CCOC(=O)[C@@H](N)Cc1ccc(O)c(O)c1.O=C(O)[C@@H](O)c1ccccc1 [Example 16, LDEE S(+)Mandelate]	–	–	–	–	–	–	–	–	3.4	–	–	–	–	–	–	–	–
CCOC(=O)C(N)Cc1ccc(O)c(O)c1.O=C(O)C(O)c1ccccc1 (stereo not drawn) [Example 17, LDEE R(−)Mandelate]	>24	0.125	Semi-solid melt	5.4	hygroscopic	5.4	–	–	3.4	–	–	–	–	–	–	–	–
CCCCC(=O)O.CCOC(=O)[C@@H](N)Cc1ccc(O)c(O)c1 [Example 18, LDEE Valerate]	–	–	–	–	–	–	˜2.4	–	–	–	–	–	–	–	–	–	–
CCCCCCCC(=O)O.CCOC(=O)[C@@H](N)Cc1ccc(O)c(O)c1 [Example 19, LDEE Octanoate]	>48	0.005	White flowable powder	0.22	non-hygroscopic	0.22	2.35	–	–	–	6.0-6.5	did not absorb water	white flowable powder	–	–	–	–
CCO.CCOC(=O)[C@@H](N)Cc1ccc(O)c(O)c1.CCOC(=O)[C@@H](N)Cc1ccc(O)c(O)c1.O=C(O)CCCCC(=O)O [Example 21, LDEE Adipate Ethanolate]	>24	0.121	Semi-solid melt	5.25	hygroscopic	5.25	2.81	1.83	–	–	6	–	–	–	–	–	–
CCO.CCOC(=O)[C@@H](N)Cc1ccc(O)c(O)c1.CCOC(=O)[C@@H](N)Cc1ccc(O)c(O)c1.O=C(O)CCC(=O)O [Example 22, LDEE Succinate Ethanolate]	>24	0.067	Semi-solid melt	2.9	hygroscopic	–	3.08	1.63	–	–	6	–	–	4.3	–	–	–
CCO.CCOC(=O)[C@@H](N)Cc1ccc(O)c(O)c1.O=C(O)/C=C\C(=O)O [Example 28, LDEE Maleate Ethanolate]	3	0.07	Yellowish syrup	3.1	hygroscopic	3.1	5.35	1.02	–	–	6.4	–	–	–	–	–	–
CCOC(=O)C(N)Cc1ccc(O)c(O)c1.O=C(O)C(O)c1ccccc1 (stereo not drawn) [R(−)Mandelate from chloroform, LDEE R(−)Mandelate]	>24	–	Semi-solid melt	–	–	–	–	–	–	–	–	–	–	–	–	–	–
LDEE Ascorbate [Example 14]	0 to 5	0.162	Red semi-solid melt	7.0	hygroscopic	7.04	3.14	–	–	–	–	–	–	–	–	–	–
LDEE Citrate [Example 12]	20	0.146	Semi-solid melt	6.3	hygroscopic	6.3	–	–	4.11	–	–	–	–	–	4.28	0.84	–
LDEE Myristate [Example 27]	>48	0.002	White flowable powder	0.11	non-hygroscopic	0.11	˜2.4	–	–	–	–	did not absorb water	–	–	–	–	white flowable powder
LDEE Oleate [Example 26]	–	–	–	–	–	–	˜2.4	–	–	–	–	–	–	–	–	–	–
LDEE Palmitate [Example 20]	–	–	–	–	–	–	2.4	–	–	–	–	–	–	–	–	–	–
LDEE Phenylbutyrate [Example 10]	1.0	0.023	Semi-solid melt	1.0	hygroscopic	1.03	2.48	–	–	–	5.5-6.0	–	–	–	–	–	–
Stearate	–	–	–	–	–	–	˜2.4	–	–	–	–	–	–	–	–	–	–
